In ChEMBL document CHEMBL5150076, “Discovery of Novel Orally Bioavailable Triazoles with Potent and Broad-Spectrum Antifungal Activity In Vitro and In Vivo” (J Med Chem, 2022):
Converted amounts (≈) assume the structure as drawn.

Columns and labels:
Assay type in all cases: functional
[1] = tested on: Aspergillus fumigatus; experiment: Antifungal activity against Aspergillus fumigatus 7544 incubated for 48 hrs by microbroth dilution method
[2] = tested on: Candida albicans; experiment: Antifungal activity against Candida albicans SC5314 incubated for 24 hrs by microbroth dilution method
[3] = tested on: Cryptococcus neoformans; experiment: Antifungal activity against Cryptococcus neoformans H99 incubated for 72 hrs by microbroth dilution method
[4] = tested on: Candida parapsilosis; experiment: Antifungal activity against Candida parapsilosis 22019; details: Lodderomyces parapsilosis
[5] = tested on: Cryptococcus neoformans; experiment: Antifungal activity against Cryptococcus neoformans 32605
[6] = tested on: Nannizzia gypsea; experiment: Antifungal activity against Microsporum gypseum
[7] = tested on: Candida albicans; experiment: Antifungal activity against Candida albicans Y0109
[8] = tested on: Trichophyton rubrum; experiment: Antifungal activity against Trichophyton rubrum cmccftla
[9] = tested on: Nakaseomyces glabratus; experiment: Antifungal activity against Candida glabrata 537

| SMILES | MIC [1] [µg/mL] | MIC [2] [µg/mL] | MIC [3] [µg/mL] | MIC [4] [µg/mL] | MIC [5] [µg/mL] | MIC [6] [µg/mL] | MIC [7] [µg/mL] | MIC [8] [µg/mL] | MIC [9] [µg/mL] |
| --- | --- | --- | --- | --- | --- | --- | --- | --- | --- |
| C[C@@H](c1cn(-c2ccc(Cl)cc2)nn1)[C@](O)(Cn1cncn1)c1cc(F)ccc1F | 32 (≈ 74.3 µM) | 0.125 (≈ 0.29 µM) | 0.125 (≈ 0.29 µM) | – | – | – | – | – | – |
| C[C@@H](c1cn(-c2ccccc2F)nn1)[C@](O)(Cn1cncn1)c1ccc(F)cc1F | 2 (≈ 4.83 µM) | 0.0625 (≈ 0.151 µM) | 0.0625 (≈ 0.151 µM) | – | – | – | – | – | – |
| C[C@@H](c1cn(-c2cc(F)ccc2F)nn1)[C@](O)(Cn1cncn1)c1ccc(F)cc1F | 2 (≈ 4.63 µM) | 0.0625 (≈ 0.145 µM) | 0.0625 (≈ 0.145 µM) | 0.0625 (≈ 0.145 µM) | 0.0313 (≈ 0.0724 µM) | 2 (≈ 4.63 µM) | 0.0313 (≈ 0.0724 µM) | 0.25 (≈ 0.578 µM) | 0.0625 (≈ 0.145 µM) |
| C[C@@H](c1cn(-c2cccc(F)c2)nn1)[C@](O)(Cn1cncn1)c1ccc(F)cc1F | 16 (≈ 38.6 µM) | 0.0625 (≈ 0.151 µM) | 0.125 (≈ 0.302 µM) | – | – | – | – | – | – |
| CCCCCCOc1ccc(-n2cc([C@H](C)[C@](O)(Cn3cncn3)c3ccc(F)cc3F)nn2)cc1 | 8 (≈ 16.1 µM) | 0.125 (≈ 0.252 µM) | 0.0625 (≈ 0.126 µM) | – | – | – | – | – | – |
| C[C@@H](c1cn(-c2ccc(F)cc2)nn1)[C@](O)(Cn1cncn1)c1ccc(F)cc1F | 4 (≈ 9.65 µM) | 0.0625 (≈ 0.151 µM) | 0.0625 (≈ 0.151 µM) | – | – | – | – | – | – |
| C[C@@H](c1cn(-c2ccc(C(F)(F)F)cc2)nn1)[C@](O)(Cn1cncn1)c1ccc(F)cc1F | 16 (≈ 34.5 µM) | 0.0625 (≈ 0.135 µM) | 0.0625 (≈ 0.135 µM) | – | – | – | – | – | – |
| C[C@@H](c1cn(-c2ccc(Cl)c(F)c2)nn1)[C@](O)(Cn1cncn1)c1ccc(F)cc1F | 16 (≈ 35.6 µM) | 0.0313 (≈ 0.0697 µM) | 0.0625 (≈ 0.139 µM) | – | – | – | – | – | – |
| C[C@@H](c1cn(-c2ccc(Cl)cc2)nn1)[C@](O)(Cn1cncn1)c1ccc(F)cc1F | 4 (≈ 9.28 µM) | 0.0625 (≈ 0.145 µM) | 0.0156 (≈ 0.0362 µM) | – | – | – | – | – | – |
| C[C@@H](c1cn(-c2cc(F)c(F)c(F)c2)nn1)[C@](O)(Cn1cncn1)c1ccc(F)cc1F | 2 (≈ 4.44 µM) | 0.125 (≈ 0.278 µM) | 0.125 (≈ 0.278 µM) | – | – | – | – | – | – |
| C[C@@H](c1cn(-c2ccccc2)nn1)[C@](O)(Cn1cncn1)c1ccc(F)cc1F | 4 (≈ 10.1 µM) | 0.0625 (≈ 0.158 µM) | 0.0625 (≈ 0.158 µM) | – | – | – | – | – | – |
| C[C@@H](c1cn(-c2ccc(OC(F)(F)F)cc2)nn1)[C@](O)(Cn1cncn1)c1ccc(F)cc1F | 4 (≈ 8.33 µM) | 0.0313 (≈ 0.0652 µM) | 0.0625 (≈ 0.13 µM) | 0.125 (≈ 0.26 µM) | 0.0625 (≈ 0.13 µM) | 2 (≈ 4.16 µM) | 0.0313 (≈ 0.0652 µM) | 0.15 (≈ 0.312 µM) | 0.125 (≈ 0.26 µM) |
| CCCCOc1ccc(-n2cc([C@H](C)[C@](O)(Cn3cncn3)c3ccc(F)cc3F)nn2)cc1 | 2 (≈ 4.27 µM) | 0.0156 (≈ 0.0333 µM) | 0.0625 (≈ 0.133 µM) | – | – | – | – | – | – |
| C[C@@H](c1cn(-c2ccc(Br)cc2)nn1)[C@](O)(Cn1cncn1)c1ccc(F)cc1F | 8 (≈ 16.8 µM) | 0.0625 (≈ 0.131 µM) | 0.125 (≈ 0.263 µM) | – | – | – | – | – | – |
| C[C@@H](c1cn(-c2cncnc2)nn1)[C@](O)(Cn1cncn1)c1ccc(F)cc1F | 64 (≈ 161 µM) | 0.5 (≈ 1.26 µM) | 4 (≈ 10 µM) | – | – | – | – | – | – |
| C[C@@H](c1cn(-c2ccc(OCC(F)(F)F)cc2)nn1)[C@](O)(Cn1cncn1)c1ccc(F)cc1F | 2 (≈ 4.05 µM) | 0.0313 (≈ 0.0633 µM) | 0.125 (≈ 0.253 µM) | – | – | – | – | – | – |
| C[C@@H](c1cn(-c2ccc(OCC(F)(F)C(F)F)cc2)nn1)[C@](O)(Cn1cncn1)c1ccc(F)cc1F | 2 (≈ 3.8 µM) | 0.0156 (≈ 0.0296 µM) | 0.0625 (≈ 0.119 µM) | – | – | – | – | – | – |
| C[C@@H](c1cn(-c2ccc(OCc3ccc(C#N)cc3)cc2)nn1)[C@](O)(Cn1cncn1)c1ccc(F)cc1F | > 64 | 0.125 (≈ 0.237 µM) | – | – | – | – | – | – | – |
| C[C@@H](c1cn(-c2ccc(OC(F)F)cc2)nn1)[C@](O)(Cn1cncn1)c1ccc(F)cc1F | 8 (≈ 17.3 µM) | 0.0313 (≈ 0.0677 µM) | 0.125 (≈ 0.27 µM) | – | – | – | – | – | – |
| C[C@@H](c1cn(-c2ccc(OCc3ccc(OC(F)(F)F)cc3)cc2)nn1)[C@](O)(Cn1cncn1)c1ccc(F)cc1F | 8 (≈ 13.6 µM) | 0.25 (≈ 0.426 µM) | 0.0625 (≈ 0.107 µM) | – | – | – | – | – | – |

| SMILES | MIC [1] [µg/mL] | MIC [2] [µg/mL] | MIC [3] [µg/mL] | MIC [4] [µg/mL] | MIC [5] [µg/mL] | MIC [6] [µg/mL] | MIC [7] [µg/mL] | MIC [8] [µg/mL] | MIC [9] [µg/mL] |
| --- | --- | --- | --- | --- | --- | --- | --- | --- | --- |
| C[C@@H](c1cn(-c2ccc(S(C)(=O)=O)cc2)nn1)[C@](O)(Cn1cncn1)c1ccc(F)cc1F | > 64 | 0.5 (≈ 1.05 µM) | 4 (≈ 8.43 µM) | – | – | – | – | – | – |
| C[C@@H](c1cn(-c2cc(F)cc(F)c2)nn1)[C@](O)(Cn1cncn1)c1ccc(F)cc1F | 8 (≈ 18.5 µM) | 0.0625 (≈ 0.145 µM) | 0.0625 (≈ 0.145 µM) | – | – | – | – | – | – |
| C[C@@H](c1cn(-c2ccc(OCc3ccc(C(F)(F)F)cc3)cc2)nn1)[C@](O)(Cn1cncn1)c1ccc(F)cc1F | 16 (≈ 28 µM) | 1 (≈ 1.75 µM) | 0.125 (≈ 0.219 µM) | – | – | – | – | – | – |
| C[C@@H](c1cn(-c2ccc(OCc3ccc(F)cc3)cc2)nn1)[C@](O)(Cn1cncn1)c1ccc(F)cc1F | > 64 | 0.125 (≈ 0.24 µM) | 0.0625 (≈ 0.12 µM) | – | – | – | – | – | – |
| C[C@@H](c1cn(-c2c(F)c(F)cc(F)c2F)nn1)[C@](O)(Cn1cncn1)c1ccc(F)cc1F | 2 (≈ 4.27 µM) | 0.0625 (≈ 0.133 µM) | 0.0625 (≈ 0.133 µM) | – | – | – | – | – | – |
| C[C@@H](c1cn(-c2ccc(O)cc2)nn1)[C@](O)(Cn1cncn1)c1ccc(F)cc1F | > 64 | 3 (≈ 7.27 µM) | 2 (≈ 4.85 µM) | – | – | – | – | – | – |
| C[C@@H](c1cn(-c2ccc(F)c(F)c2)nn1)[C@](O)(Cn1cncn1)c1ccc(F)cc1F | 8 (≈ 18.5 µM) | 0.0625 (≈ 0.145 µM) | 0.125 (≈ 0.289 µM) | – | – | – | – | – | – |
| C[C@@H](c1cn(-c2cccnc2)nn1)[C@](O)(Cn1cncn1)c1ccc(F)cc1F | 32 (≈ 80.5 µM) | 0.25 (≈ 0.629 µM) | 2 (≈ 5.03 µM) | – | – | – | – | – | – |
| C[C@@H](c1cn(-c2ccc(OCc3ccc(C(C)(C)C)cc3)cc2)nn1)[C@](O)(Cn1cncn1)c1ccc(F)cc1F | > 64 | 0.125 (≈ 0.224 µM) | 0.5 (≈ 0.895 µM) | – | – | – | – | – | – |
| C[C@@H](c1cn(-c2ccc(OCC(F)(F)C(F)(F)F)cc2)nn1)[C@](O)(Cn1cncn1)c1ccc(F)cc1F | 8 (≈ 14.7 µM) | – | 0.0625 (≈ 0.115 µM) | – | – | – | – | – | – |
| C[C@@H](c1cn(-c2ccc([N+](=O)[O-])cc2)nn1)[C@](O)(Cn1cncn1)c1ccc(F)cc1F | > 64 | – | 0.25 (≈ 0.566 µM) | – | – | – | – | – | – |
| C[C@@H](c1cn(-c2ccc(OCC(F)(F)F)nc2)nn1)[C@](O)(Cn1cncn1)c1ccc(F)cc1F | 2 (≈ 4.04 µM) | 0.0313 (≈ 0.0632 µM) | 0.0625 (≈ 0.126 µM) | – | – | – | – | – | – |
| C[C@@H](c1cn(-c2ccc(Cl)cc2F)nn1)[C@](O)(Cn1cncn1)c1cc(F)ccc1F | 4 (≈ 8.91 µM) | 0.0625 (≈ 0.139 µM) | 0.0625 (≈ 0.139 µM) | – | – | – | – | – | – |
| C[C@@H](c1cn(-c2c(F)cccc2F)nn1)[C@](O)(Cn1cncn1)c1ccc(F)cc1F | 2 (≈ 4.63 µM) | 0.125 (≈ 0.289 µM) | 0.125 (≈ 0.289 µM) | – | – | – | – | – | – |
| C[C@@H](c1cn(-c2ccc(OCc3ccc(Cl)cc3)cc2)nn1)[C@](O)(Cn1cncn1)c1ccc(F)cc1F | > 64 | 0.5 (≈ 0.931 µM) | 0.0625 (≈ 0.116 µM) | – | – | – | – | – | – |
| C[C@@H](c1cn(-c2ccc(Cl)cc2Cl)nn1)[C@](O)(Cn1cncn1)c1ccc(F)cc1F | > 8 | – | 0.125 (≈ 0.269 µM) | – | – | – | – | – | – |
| CC(=O)c1ccc(-n2cc([C@H](C)[C@](O)(Cn3cncn3)c3ccc(F)cc3F)nn2)cc1 | > 64 | 0.125 (≈ 0.285 µM) | 0.25 (≈ 0.57 µM) | – | – | – | – | – | – |
| C[C@@H](c1cn(-c2ccc(OC(F)(F)F)cc2)nn1)[C@](O)(Cn1cncn1)c1cc(F)ccc1F | 32 (≈ 66.6 µM) | 0.0625 (≈ 0.13 µM) | 0.125 (≈ 0.26 µM) | – | – | – | – | – | – |
| C[C@@H](c1cn(-c2ccc(C#N)cc2)nn1)[C@](O)(Cn1cncn1)c1ccc(F)cc1F | > 64 | 0.125 (≈ 0.297 µM) | 0.25 (≈ 0.593 µM) | – | – | – | – | – | – |
| C[C@@H](c1cn(-c2ccc(F)cc2F)nn1)[C@](O)(Cn1cncn1)c1ccc(F)cc1F | 2 (≈ 4.63 µM) | 0.0625 (≈ 0.145 µM) | 0.0625 (≈ 0.145 µM) | 0.0313 (≈ 0.0724 µM) | 0.0313 (≈ 0.0724 µM) | 2 (≈ 4.63 µM) | 0.0625 (≈ 0.145 µM) | 0.125 (≈ 0.289 µM) | 0.0313 (≈ 0.0724 µM) |
